Results published in ChEMBL document CHEMBL5604062, “ASAP - ZIKV NS2B-NS3 protease fluorescence dose response” (2024).
Values joined by “and” are separate entries in the source; they are usually repeats but may differ in a detail not shown here. Identical values can stand only once.

Target: Nonstructural protein 3 (Zika virus, UniProt A0A024AXB9)
Experiment: Functional biochemical assay to identify treatments for viral infectious disease that targets Zika NS2B-NS3 protease. Utilizing a direct enzyme activity measurement method, reading the fluorescence intensity is used to characterize the relative potency of inhibitors as IC50.
Parameters: species or system PRVABC59

Sequence of Nonstructural protein 3 (A0A024AXB9 whole entry): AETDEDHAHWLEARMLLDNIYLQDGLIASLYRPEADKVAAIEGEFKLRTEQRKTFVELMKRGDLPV

Row | SMILES | IC50
1 | C=CC[C@H]1NCc2cc(NC(=O)c3cccc4c3CC(=O)N4)ccc21 | 1.15 µM
2 | O=C(Nc1cc([C@H]2CCOC2)ccn1)c1cc(Br)cc2[nH]ccc12 | > 25 µM
3 | O=C(Nc1ccc2c(c1)CNC2)c1cc(Cl)cc2[nH]c(-c3cnc(C4CC4)o3)nc12 | 0.05 µM and 0.027 µM
4 | O=C1NS(=O)(=O)c2ccc(NC(=O)c3cc(Cl)cc4[nH]ncc34)cc21 | > 25 µM
5 | CCOc1ccc([C@@H](NC(=O)OCc2ccccc2)C(=O)Nc2cccc(CN)c2)cc1 | > 99.5 µM
6 | CN1CCc2nc(NC(=O)[C@@H](NC(=O)OCc3ccccc3)c3ccc(OCc4ccccc4)cc3)sc2C1 | > 99.5 µM
7 | COCCNC(=O)[C@H](Nc1cccc([C@H]2CCOC2)c1)c1cc(Br)cc2[nH]ccc12 | > 25 µM
8 | CC(C)(C)NC(=O)[C@H](Nc1cccc(-c2nn[nH]n2)c1)c1cc(Cl)cc(NC(=O)OCc2ccccc2)c1 | 27.8 µM
9 | CC(C)CNC(=O)c1cc(Cl)ccc1C=Cc1ccc(Oc2ccccc2Cl)cc1 | > 99.5 µM
10 | CC(C)Cn1cccc(C(=O)Nc2ccnc3ccccc23)c1=O | > 99.5 µM
11 | COC1(C(=O)N[C@H](CC(=O)Nc2cccc(CN)c2)c2ccc(OCc3ccccc3)c(Br)c2)CC1 | 48.7 µM
12 | N=C(N)NCCc1ccccc1B(O)O | > 100 µM
13 | Clc1cc(Cl)c2c(CN3CCC(c4cscn4)CC3)c[nH]c2c1 | 74.3 µM
14 | N#Cc1csc(CSc2nnc(C(F)(F)F)s2)n1 | > 99.5 µM
15 | O=C(Nc1ccc2c(c1)CS(=O)(=O)C2)c1cc(Cl)cc2[nH]ncc12 | > 25 µM
16 | CCn1ccnc(N2C[C@H](c3c[nH]c4ccccc34)[C@H](OC(C)=O)C2)c1=O | > 99.5 µM
17 | NC[C@H]1CC[C@H](CNC(=O)[C@@H](NC(=O)OCc2ccccc2)c2ccc(OCc3ccccc3)cc2)CC1 | 80.3 µM
18 | CCn1c(=O)c(N2C[C@H](C)C[C@H]2c2ccccc2)nc2ccccc21 | > 99.5 µM
19 | CCn1cc(-c2cn(C)nc2C)nc(N2CC[C@@H](CO)C2)c1=O | > 99.5 µM
20 | c1ccc2c(CN3CCC(n4cccn4)CC3)c[nH]c2c1 | > 99.5 µM
21 | O=C(Nc1ccc2c(c1)CNC2)c1cccc(-c2cnco2)c1 | 1.83 µM
22 | NCc1cccc(NC(=O)Cc2cccc(Oc3ccncc3Br)c2)c1 | > 99.5 µM
23 | NCCCc1ccnc(NC(=O)c2cc(C3CC3)no2)c1 | > 25 µM
24 | CNC(=O)[C@H](Nc1ccc2c(c1)CNC2)c1cccc2[nH]ncc12 | 3.83 µM
25 | CN1C(=O)[C@H](c2cc(Cl)cc(NC(=O)OCc3ccccc3)c2)N(c2cccc(-c3nn[nH]n3)c2)C1=O | 35.3 µM
26 | NCc1cccc(NC(=O)c2cc(Br)cc(-n3cnnn3)c2)c1 | 7.07 µM

Row | SMILES | IC50
27 | O=S(=O)(Nc1cccc(-c2nnn[nH]2)c1)c1cc(Cl)cc(C(F)(F)F)c1 | > 99.5 µM
28 | O=C(Nc1cc(Cl)cc(C(=O)Nc2nc3c(s2)CNC3)c1)OCc1ccccc1 | 85.7 µM
29 | NCc1cc(C(F)(F)F)cc(-c2ccc3[nH]c(C(=O)O)cc3c2)n1 | > 99.5 µM
30 | NCc1cccc(NC(=O)[C@H](NS(=O)(=O)c2cccnc2)c2ccc(OCc3ccccc3)cc2)c1 | > 99.5 µM
31 | CCn1ccc(-c2ccc([C@@H](NC(=O)OCc3ccccc3)C(=O)Nc3cccc(CN)c3)cc2)n1 | > 99.5 µM
32 | NCc1cccc(NC(=O)C[C@H](NC(=O)OCc2ccccc2)C2CCCCC2)c1 | 83.1 µM and 78.1 µM
33 | O=C(Nc1cc(Cl)cc(N[C@H](C#CCO)c2ccc(-c3nn[nH]n3)cc2)c1)OCc1ccccc1 | 52.4 µM
34 | CCn1cc(-c2ccnc(C)c2)nc(N2CC[C@@H](CO)C2)c1=O | > 99.5 µM
35 | O=C(O)c1cc(Cl)ccc1S(=O)(=O)NC1CCN(C(=O)c2ccccc2C(F)(F)F)CC1 | > 99.5 µM
36 | O=C1OCc2ccc(NC(=O)[C@H]3CCNC3)cc21 | > 25 µM
37 | CC1=CC[C@H](c2cccc(-c3nn[nH]n3)c2)Nc2cc(Cl)ccc21 | > 25 µM
38 | O=C(Nc1cc(-c2cccnc2)ccn1)c1nc(Br)n2c1CNCC2 | > 25 µM
39 | NCc1cccc(NC(=O)[C@H]2[C@@H]3CC[C@@H](C3)[C@H]2NC(=O)OCc2ccccc2)c1 | 30.8 µM and 30.7 µM
40 | NCCCOc1cc(-c2ccc(N)nc2)cc2c1COB2O | > 99.5 µM
41 | O=C(Nc1ccc2c(c1)CNC2)c1cc(O)nc(C2CC2)c1 | 7.58 µM
42 | Cc1cc(NC(=O)c2cc(C3CC3)n(C)c2C)ccc1N1CCCC1=O | > 25 µM
43 | CSC1(C(=O)N[C@H](CC(=O)Nc2cccc(CN)c2)c2ccc(OCc3ccccc3)c(Br)c2)CCC1 | 11.8 µM
44 | C[C@@H](N)c1cccc(NC(=O)[C@H]2[C@H]3CCCCC[C@H]3[C@H]2NC(=O)OCc2ccccc2)c1 | 13.1 µM and 12.9 µM
45 | NCc1cccc(NC(=O)[C@@H](NC(=O)OCc2ccccc2)c2ccc(OCc3nc4c(s3)COCC4)cc2)c1 | 65.1 µM
46 | Cc1nocc1S(=O)(=O)N[C@H](C(=O)Nc1cccc(CN)c1)c1ccc(OCc2ccccc2)cc1 | > 99.5 µM
47 | Cc1c(C(=O)Nc2cc(CCCN)ccn2)cc(C(C)C)n1C | > 99.5 µM
48 | CCc1cc(C(=O)Nc2cccc(-c3nnn[nH]3)c2)ccc1Cl | > 99.5 µM
49 | O=C1Cc2c(cccc2C(=O)Nc2cnc(OC3CCC3)nc2)N1 | > 25 µM
50 | N#C[C@H](Nc1cncc(-c2nn[nH]n2)c1)c1cc(Cl)cc(NC(=O)OCc2ccccc2)c1 | 51.9 µM
51 | O=C(Nc1cc(Cl)cc(C(=O)Nc2nc([C@H]3CCCN3)cc(=O)[nH]2)c1)OCc1ccccc1 | 92 µM
52 | NC[C@H]1C[C@@H](NC(=O)c2cc(Cl)ccc2NS(=O)(=O)c2ccc(Oc3ccccc3Cl)cc2)C1 | > 99.5 µM

Row | SMILES | IC50
53 | O=C1Cc2c(cccc2C(=O)NC2(c3ncccc3F)CC2)N1 | > 25 µM
54 | O=C(NCc1ccc2c(c1)CNC2)c1cc(Cl)cc2[nH]ncc12 | 12 µM
55 | Cc1cc(CNC(=O)[C@@H](NC(=O)OCc2ccccc2)c2ccc(OCc3ccccc3)cc2)cc(C)n1 | > 99.5 µM
56 | COC(=O)c1n[nH]cc1CN1CCC(c2nc3ccccc3s2)CC1 | > 99.5 µM
57 | CC(C)(C)OC(=O)N[C@H](C(=O)Nc1cccc(CN)c1)c1ccc(OCc2ccccc2)cc1 | > 99.5 µM
58 | CC(C)[C@H](NC(=O)c1cc(Cl)cc(NC(=O)OCc2ccccc2)c1)C(=O)O | > 99.5 µM
59 | CCn1c(=O)c(N2CC3(COC3)[C@](F)(CO)C2)nc2ccccc21 | > 99.5 µM
60 | Cc1cc(C(=O)Nc2ccc3c(c2)CNC3)c2cn[nH]c2c1 | 0.077 µM and 0.066 µM
61 | O=C1Cc2c(cccc2C(=O)NC2CC3(CCOCC3)C2)N1 | > 25 µM
62 | c1ccc(-c2[nH]c3ccccc3c2CN2CCC(c3cscn3)CC2)cc1 | 34.4 µM
63 | CCS(=O)(=O)c1ccc(Cl)cc1C(=O)Nc1cccc(CN)c1 | 82.1 µM
64 | O=Cc1ccc(N2CCC(C(=O)Nc3cccc(Br)n3)CC2)cc1 | 24.7 µM
65 | Cc1c(C(=O)Nc2cc(CCCN)ccn2)cc(C2CCCCC2)n1C | > 99.5 µM
66 | O=C(Nc1cc(Cl)cc(C(=O)N[C@]2(c3nnn[nH]3)CCOC2)c1)OCc1ccccc1 | > 99.5 µM
67 | O=C(Nc1cccc(-c2nnn[nH]2)c1)c1cc(Cl)cc(C2CC2)c1 | > 99.5 µM
68 | O=C(Nc1cc(Cl)cc(C(=O)Nc2cccc([C@H]3CCNC3)c2)c1)OCc1ccccc1 | 8.73 µM and 11.6 µM
69 | CCc1cc2c(cc1NC(=O)c1cc(F)cc3[nH]ncc13)CNC2 | 0.14 µM
70 | O=C(O)c1c(F)cc(F)cc1NS(=O)(=O)c1ccc(Oc2ccccc2Cl)cc1 | > 99.5 µM
71 | Cc1c(C(=O)Nc2ccc([C@@H](C)N)cc2)cc(C2CC2)n1C | > 99.5 µM
72 | O=C(NCC(F)F)[C@H](Nc1ccc2c(c1)CNC2)c1cc(Cl)ccc1Cl | 0.232 µM
73 | NCc1cc(Cl)cc(C(=O)Nc2cc([C@H]3CCOC3)ccn2)c1 | > 25 µM
74 | O=S(=O)(c1cccnc1)N1CCN(Cc2c[nH]c3ccccc23)CC1 | > 99.5 µM
75 | Cc1c(CN)c(C(=O)Nc2cc(-c3cccnc3)ccn2)nn1C | > 25 µM
76 | COc1ccc(S(=O)(=O)Nc2cc(F)c(Cl)cc2C(=O)NCC(C)C)cc1 | > 99.5 µM
77 | NCc1ccc(NC(=O)[C@@H](NC(=O)OCc2ccccc2)c2ccc(OCc3ccccc3)cc2)cc1 | > 99.5 µM
78 | CN(Cc1cccnc1)Cc1c[nH]c2ccccc12 | > 99.5 µM

Row | SMILES | IC50
79 | N=C(N)NCc1ccc(NC(=O)Oc2ccccc2)cc1 | > 100 µM
80 | Brc1ccsc1CSc1cnn[nH]1 | > 99.5 µM
81 | O=C1OCc2ccc(NC(=O)c3cc(F)cc4c3CCNC4)cc21 | > 25 µM
82 | O=C(N[C@H](C(=O)NCc1cccc(CO)c1)c1ccc(OCc2ccccc2)cc1)OCc1ccccc1 | > 99.5 µM
83 | Cn1cc2c(C(=O)Nc3ccc4c(c3)CNC4)cccc2n1 | 1.13 µM
84 | Cc1c(C(=O)Nc2cc(C(N)=O)ccn2)cc(C2CC2)n1C | > 25 µM
85 | O=C(Nc1cc(Cl)cc(C(=O)NC[C@H]2CCNC3(CC3)C2)c1)OCc1ccccc1 | > 99.5 µM
86 | FC(F)(F)Oc1cc(Cl)cc2c(Cc3ccc(-c4nnn[nH]4)cc3)c[nH]c12 | 34.1 µM
87 | CCn1ccnc(N2CC[C@H](c3cccnc3)C2)c1=O | > 99.5 µM
88 | COC[C@]1(c2nc3c(C(=O)Nc4ccc5c(c4)CNC5)cc(F)cc3[nH]2)CCOC1 | 0.344 µM
89 | CCOC(=O)Nc1cc(Cl)cc(C(=O)Nc2cccc(CN)c2)c1 | 3.2 µM
90 | O=C(O)c1cc(Cl)ccc1S(=O)(=O)N[C@H]1CCN(Cc2ccccc2)C2(CC2)C1 | > 99.5 µM
91 | Cc1cc(N2CCCCC2)ccc1NS(=O)(=O)c1ccc(Cl)cc1C(=O)O | > 99.5 µM
92 | OC1CCN(Cc2c[nH]c3ccccc23)CC1 | > 99.5 µM
93 | O=C1Cc2c(cccc2C(=O)Nc2ccc(-c3cccnc3)cn2)N1 | > 25 µM
94 | CCn1c(=O)c(N2C[C@@H]3CN(C4CCC4)C[C@@H]3C2)nc2ccccc21 | > 99.5 µM
95 | NC1CN(c2ncccc2NS(=O)(=O)c2ccc(Oc3ccccc3Cl)cc2)C1 | > 99.5 µM
96 | O=C(Nc1cc(Cl)cc(C(=O)Nc2cccc(-c3nnn[nH]3)c2)c1)OCc1ccccc1 | 40.8 µM
97 | O=Cc1ccc(N2CCC(C(=O)NCCc3ccc(O)c(O)c3)CC2)cc1 | 55.9 µM
98 | NCc1cccc(S(=O)(=O)Nc2cc(Cl)cc(NC(=O)OCc3ccccc3)c2)c1 | > 99.5 µM
99 | c1ccc(OC2CCN(Cc3c[nH]c4ccccc34)CC2)cc1 | > 99.5 µM
100 | CCNC(=O)Nc1cc(Cl)cc(C(=O)Nc2cccc(C3CCNCC3)c2)c1 | 19.9 µM
101 | CCn1cc(-c2ccccc2)nc(N2CC[C@@H](CO)C2)c1=O | > 99.5 µM
102 | O=C(Nc1ccc2c(c1)CNC2)c1cc(F)cc(-c2c[nH]c(=O)c(F)c2)c1 | 0.073 µM and 0.043 µM
103 | O=C(Nc1cc(-c2cccnc2)ccn1)c1cn([C@H]2CCCNC2)nn1 | > 25 µM
104 | O=C(O)c1cc(Cl)ccc1S(=O)(=O)N[C@H]1CC[C@H](Oc2cnccn2)CC1 | > 99.5 µM
